Measurements taken from patent US9580432B2, “Fused pyrimidine compound or salt thereof” (TAIHO PHARMACEUTICAL CO., LTD., priority 2013, dated 2017).

How the values were obtained:
[1] = target: purified recombinant human BTK protein (Homo sapiens (Human), UniProt Q06187); test: Measurement of BTK inhibitory activity (in vitro); type: biochemical; conditions: FL-PEPTIDE 2 substrate 1 μM, ATP 45 μM, 40 minutes at 25° C.
Description: With regard to the setting of the conditions for a method for measuring the inhibitory activity of a compound against BTK kinase activity in vitro, it is described in the consumable reagent supplies price list for LabChip (registered trademark) series of PerkinElmer, Inc. that FL-PEPTIDE 2 corresponds to a substrate peptide for the measurement of BTK kinase activity. Therefore, FL-PEPTIDE 2 was used as a substrate. The purified recombinant human BTK protein used in the test was purchased from Carna Biosciences, Inc.
With regard to the measurement of the inhibitory activity of the compounds, firstly, the compounds of the present invention were diluted stepwise with dimethyl sulfoxide (DMSO). Subsequently, BTK protein, a substrate peptide (final concentration was 1 μM), magnesium chloride (final concentration was 10 mM), ATP (final concentration was 45 μM), and a DMSO solution of the compounds of the present invention (final concentration of DMSO was 5%) were added to a buffer solution for kinase reaction (20 mM HEPES (pH 7.5), 2 mM dithiotheitol, 0.01% Triton X-100), and after the solution was incubated for 40 minutes at 25° C., a kinase reaction was carried out. The reaction was terminated by adding EDTA thereto in order to obtain a final concentration of 30 mM. Finally, a substrate peptide that was not phosphorylated (S) and a phosphorylated peptide (P) were separated and detected by microchannel capillary electrophoresis using a LabChip EZ Reader II (PerkinElmer, Inc.).

[2] = system: purified recombinant human EGFR protein / BTK; test: BTK inhibition selectivity compared with EGFR kinase inhibitory activity (in vitro); type: biochemical; conditions: EGFR assay ATP 1.5 μM
Procedure: 1) Measurement of BTK Inhibitory Activity
2) Measurement of EGFR Inhibitory Activity
Therefore, a biotinated peptide (biotin-[…]) was produced by referring to the amino acid sequence of the peptide. The purified recombinant human EGFR protein used in the test was purchased from Carna Biosciences, Inc.
With regard to the measurement of the inhibitory activity of the compounds, firstly, the compounds of the present invention were diluted stepwise with dimethyl sulfoxide (DMSO). […] The reaction was terminated by adding EDTA thereto in order to obtain a final concentration of 24 mM. Subsequently, a detection liquid containing Eu-labeled anti-phosphorylated tyrosine antibody PT66 (PerkinElmer, Inc.) and […] APC-SA (PerkinElmer, Inc.) was added thereto, and the system was left to stand for 2 hours or longer at room temperature.
3) BTK Inhibition Selectivity

A431 cells / TMD8 cells = test: Proliferation inhibitory activity against cell lines expressing BTK and EGFR (in vitro), comparison of selectivity; type: cell-based, human; conditions: ratio from GI50 (nM), 3 days culture, CELLTITER GLO
Description: TMD8 cells, which are of a diffuse large B-cell lymphoma cell line expressing BTK, were suspended in RPMI1640 medium (manufactured by Life Technologies Corp.) containing 10% fetal bovine serum. A431 cells, which are of an EGFR-overexpressing, highly activated human epidermoid carcinoma cell line, were suspended in DMEM, high glucose medium (manufactured by Life Technologies Corp.) containing 10% fetal bovine serum. The cell suspensions were inoculated into each well of 384-well flat-bottomed microplates, and the cells were cultured for 1 day at 37° C. in an incubator containing 5% carbon dioxide gas. […] A DMSO solution of the test compounds was diluted with the medium used in the suspension of the each cells, and this was added to each of the wells of the cell culture plates such that the final concentration of DMSO would be 0.2%. The cells were further cultured for 3 days at 37° C. in an incubator containing 5% carbon dioxide gas. […] Proliferation inhibition ratio (%)=(C−T)/(C−C0)×100
T: Luminescence intensity of a well in which the test compound was added
C: Luminescence intensity of a well in which the test compound was not added
C0: Luminescence intensity of a well measured before the addition of the test compound
When a comparison is made between the cell proliferation inhibitory activity against A431 cells that depends on the EGFR proliferation signaling and the cell proliferation inhibitory activity against TMD8 cells that depends on the BTK proliferation signaling, the influence of the respective kinases at a cellular level is able to be evaluated. That is, when the “A431 cell proliferation inhibition ratio/TMD8 cell proliferation inhibition ratio” is calculated, it is contemplated that as the value of the ratio is larger, the selectivity to BTK over EGFR in the cells is higher.

Chain of purified recombinant human BTK protein (Q06187 whole entry): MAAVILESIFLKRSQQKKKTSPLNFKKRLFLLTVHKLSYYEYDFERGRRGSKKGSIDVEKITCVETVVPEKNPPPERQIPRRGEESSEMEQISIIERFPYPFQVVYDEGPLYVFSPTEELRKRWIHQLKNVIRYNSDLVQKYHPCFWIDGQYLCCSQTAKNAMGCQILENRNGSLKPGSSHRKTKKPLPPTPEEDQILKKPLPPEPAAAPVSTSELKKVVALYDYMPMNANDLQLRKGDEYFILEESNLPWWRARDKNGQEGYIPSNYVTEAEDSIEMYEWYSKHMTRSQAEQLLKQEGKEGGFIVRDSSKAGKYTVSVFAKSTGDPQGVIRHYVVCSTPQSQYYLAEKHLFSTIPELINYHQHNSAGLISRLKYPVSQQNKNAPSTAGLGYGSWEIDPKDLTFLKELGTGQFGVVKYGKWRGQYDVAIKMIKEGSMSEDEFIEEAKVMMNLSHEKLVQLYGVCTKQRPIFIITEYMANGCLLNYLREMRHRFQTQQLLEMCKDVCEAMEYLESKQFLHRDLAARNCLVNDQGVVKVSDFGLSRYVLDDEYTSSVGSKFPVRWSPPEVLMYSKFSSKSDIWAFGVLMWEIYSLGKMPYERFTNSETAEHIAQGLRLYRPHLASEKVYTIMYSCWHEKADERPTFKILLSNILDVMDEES

Row | Compound | IC50 [1] | EGFR inhibitory activity IC50 value (nM)/BTK inhibitory activity IC50 value (nM) [2] | A431 cell proliferation inhibition ratio/TMD8 cell proliferation inhibitio ratio (A431 cells / TMD8 cells)
1 | C=CC(=O)NCCCn1nc(C(=O)Nc2nc3ccccc3o2)c2c(N)ncnc21 [Example 85, 1-(3-acrylamidopropyl)-4-amino-N-(benzo[d]oxazol-2-yl)-1H-pyrazolo[3,4-d]pyrimidine-3-carboxamide] | – | 11.0 | –
2 | C=CC(=O)N1CC(n2cc(C(=O)Nc3nc4cc(Cl)ccc4o3)c3c(N)ncnc32)C1 [Example 46, 7-(1-acryloylazetidin-3-yl)-4-amino-N-(5-chlorobenzo[d]oxazol-2-yl)-7H-pyrrolo[2,3-d]pyrimidine-5-carboxamide] | 3.27 nM | – | 7662.2
3 | C=CC(=O)N1CCC[C@@H](n2nc(C(=O)Nc3nc4cc(C)c(C)cc4o3)c3c(N)ncnc32)C1 [Example 23, (R)-1-(1-acryloylpiperidin-3-yl)-4-amino-N-(5,6-dimethylbenzo[d]oxazol-2-yl)-1H-pyrazolo[3,4-d]pyrimidine-3-carboxamide] | 1.58 nM | – | >10680
4 | C=CC(=O)N1CC[C@@H](n2nc(C(=O)Nc3nc4cc(C)ccc4o3)c3c(N)ncnc32)C1 [Example 29, (R)-1-(1-acryloylpyrrolidin-3-yl)-4-amino-N-(5-methylbenzo[d]oxazol-2-yl)-1H-pyrazolo[3,4-d]pyrimidine-3-carboxamide] | 0.485 nM | – | 1243.4
5 | C=CC(=O)N1CCC[C@@H](n2nc(C(=O)Nc3nc4cc(Cl)ccc4o3)c3c(N)ncnc32)C1 [Example 1, (R)-1-(1-acryloylpiperidin-3-yl)-4-amino-N-(5-chlorobenzo[d]oxazol-2-yl)-1H-pyrazolo[3,4-d]pyrimidine-3-carboxamide] | 0.415 nM | – | 1062.9
6 | C=CC(=O)N1CC[C@@H](n2cc(C(=O)Nc3nc4cc(Cl)ccc4o3)c3c(N)ncnc32)C1 [Example 48, (R)-7-(1-acryloylpyrrolidin-3-yl)-4-amino-N-(5-chlorobenzo[d]oxazol-2-yl)-7H-pyrrolo[2,3-d]pyrimidine-5-carboxamide] | 0.836 nM | – | 2496.4
7 | C=CC(=O)N1CCC(Cn2nc(C(=O)Nc3nc4ccccc4o3)c3c(N)ncnc32)C1 (stereo not shown) [Example 66, 1-((1-acryloylpyrrolidin-3-yl)methyl)-4-amino-N-(benzo[d]oxazol-2-yl)-1H-pyrazolo[3,4-d]pyrimidine-3-carboxamide] | 17 nM | – | >1205.7
8 | C=CC(=O)N1CC(n2nc(C(=O)Nc3nc4cc(F)ccc4o3)c3c(N)ncnc32)C1 [Example 79, 1-(1-acryloylazetidin-3-yl)-4-amino-N-(5-fluorobenzo[d]oxazol-2-yl)-1H-pyrazolo[3,4-d]pyrimidine-3-carboxamide] | – | 20.6 | –
9 | C=CC(=O)N1CCC[C@@H](n2nc(C(=O)Nc3nc4c(C)cccc4o3)c3c(N)ncnc32)C1 [Example 10, (R)-1-(1-acryloylpiperidin-3-yl)-4-amino-N-(4-methylbenzo[d]oxazol-2-yl)-1H-pyrazolo[3,4-d]pyrimidine-3-carboxamide] | 2.38 nM | – | 5860.5

Continued, in another order:

Row | IC50 [1] | EGFR inhibitory activity IC50 value (nM)/BTK inhibitory activity IC50 value (nM) [2] | Compound | A431 cell proliferation inhibition ratio/TMD8 cell proliferation inhibitio ratio (A431 cells / TMD8 cells)
10 | 0.786 nM | 70.5 | Nc1ncnc2c1c(C(=O)Nc1nc3cc(Cl)ccc3o1)nn2[C@@H]1CCN(C(=O)/C=C/CN2CCCCC2)C1 [Example 37, (R,E)-4-amino-N-(5-chlorobenzo[d]oxazol-2-yl)-1-(1-(4-(piperidin-1-yl)but-2-enoyl)pyrrolidin-3-yl)-1H-pyrazolo[3,4-d]pyrimidine-3-carboxamide] | –
11 | 0.888 nM | 929.2 | C=C(C)C(=O)N1CCC[C@@H](n2nc(C(=O)Nc3nc4cc(Cl)ccc4o3)c3c(N)ncnc32)C1 [Example 4, (R)-4-amino-N-(5-chlorobenzo[d]oxazol-2-yl)-1-(1-methacryloylpiperidin-3-yl)-1H-pyrazolo[3,4-d]pyrimidine-3-carboxamide] | –
12 | 259 nM | 11.2 | CN(C)C/C=C/C(=O)N1CC[C@H](n2nc(C(=O)Nc3nc4ccccc4o3)c3c(N)ncnc32)C1 [Example 73, (S,E)-4-amino-N-(benzo[d]oxazol-2-yl)-1-(1-(4-(dimethylamino)but-2-enoyl)pyrrolidin-3-yl)-1H-pyrazolo[3,4-d]pyrimidine-3-carboxamide] | –
13 | 2.79 nM | 642.8 | CC(C)=CC(=O)N1CC[C@@H](n2nc(C(=O)Nc3nc4cc(Cl)ccc4o3)c3c(N)ncnc32)C1 [Example 26, (R,E)-4-amino-N-(5-chlorobenzo[d]oxazol-2-yl)-1-(1-(3-methylbut-2-enoyl)pyrrolidin-3-yl)-1H-pyrazolo[3,4-d]pyrimidine-3-carboxamide] | –
14 | 1.25 nM | 241.0 | C/C=C/C(=O)N1CCC[C@@H](n2nc(C(=O)Nc3nc4cc(Cl)ccc4o3)c3c(N)ncnc32)C1 [Example 5, (R,E)-4-amino-N-(5-chlorobenzo[d]oxazol-2-yl)-1-(1-(but-2-enoyl)piperidin-3-yl)-1H-pyrazolo[3,4-d]pyrimidine-3-carboxamide] | –
15 | 0.464 nM | – | C=CC(=O)N1CCC[C@@H](n2nc(C(=O)Nc3nc4cc(Br)ccc4o3)c3c(N)ncnc32)C1 [Example 2, (R)-1-(1-acryloylpiperidin-3-yl)-4-amino-N-(5-bromobenzo[d]oxazol-2-yl)-1H-pyrazolo[3,4-d]pyrimidine-3-carboxamide] | >1033.6
16 | 1.51 nM | 16.3 | CC(C)N(C)C/C=C/C(=O)N1CC[C@@H](n2cc(C(=O)Nc3nc4cc(-c5ccccc5)ccc4o3)c3c(N)ncnc32)C1 [Example 59, (R,E)-4-amino-N-(5-phenylbenzo[d]oxazol-2-yl)-7-(1-(4-(isopropyl(methyl)amino)but-2-enoyl)pyrrolidin-3-yl) 7H-pyrrolo[2,3-d]pyrimidine-5-carboxamide] | –
17 | 2.34 nM | 67.5 | Nc1ncnc2c1c(C(=O)Nc1nc3cc(-c4ccccc4)ccc3o1)cn2[C@@H]1CCN(C(=O)/C=C/CN2CCCCC2)C1 [Example 61, (R,E)-4-amino-N-(5-phenylbenzo[d]oxazol-2-yl)-7-(1-(4-(piperidin-1-yl)but-2-enoyl)pyrrolidin-3-yl) 7H-pyrrolo[2,3-d]pyrimidine-5-carboxamide] | –
18 | 0.591 nM | – | C=CC(=O)N1CC[C@@H](n2nc(C(=O)Nc3nc4cc(Cl)ccc4o3)c3c(N)ncnc32)C1 [Example 24, (R)-1-(1-acryloylpyrrolidin-3-yl)-4-amino-N-(5-chlorobenzo[d]oxazol-2-yl)-1H-pyrazolo[3,4-d]pyrimidine-3-carboxamide] | 3266.5
